Data on 31 compounds can be found in US10759813B2, “Neprilysin inhibitors” (THERAVANCE BIOPHARMA R&D IP, LLC, priority 2010, dated 2020).

SMILES strings stand for the structures.

Sequence of human neprilysin (EC 3.4.24.11; NEP) (P08473 52-750): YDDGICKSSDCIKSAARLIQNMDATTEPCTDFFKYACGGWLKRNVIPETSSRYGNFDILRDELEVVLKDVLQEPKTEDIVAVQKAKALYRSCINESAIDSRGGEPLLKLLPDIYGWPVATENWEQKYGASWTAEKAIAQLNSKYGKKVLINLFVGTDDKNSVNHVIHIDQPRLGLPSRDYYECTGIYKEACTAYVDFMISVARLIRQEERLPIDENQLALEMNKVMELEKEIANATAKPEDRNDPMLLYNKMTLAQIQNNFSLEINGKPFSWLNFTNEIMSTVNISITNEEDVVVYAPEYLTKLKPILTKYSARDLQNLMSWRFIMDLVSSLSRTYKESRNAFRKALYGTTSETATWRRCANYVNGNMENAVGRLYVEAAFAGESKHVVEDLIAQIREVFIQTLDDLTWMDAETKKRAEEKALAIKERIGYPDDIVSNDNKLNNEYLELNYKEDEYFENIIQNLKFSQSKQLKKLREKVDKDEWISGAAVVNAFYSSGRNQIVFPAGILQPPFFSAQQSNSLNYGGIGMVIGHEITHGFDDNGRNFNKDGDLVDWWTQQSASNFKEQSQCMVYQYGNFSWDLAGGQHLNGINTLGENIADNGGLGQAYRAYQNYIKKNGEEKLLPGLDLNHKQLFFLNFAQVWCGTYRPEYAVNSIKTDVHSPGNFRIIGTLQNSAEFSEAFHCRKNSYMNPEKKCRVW

The test has as its target human neprilysin (EC 3.4.24.11; NEP) (Homo sapiens (Human), UniProt P08473). Nature of the test: In vitro enzyme inhibition assay at human NEP (fluorogenic peptide substrate). It is filed as biochemical. As to conditions: pKi values at human NEP, recombinant human NEP. The method, boiled down: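 Recombinant human NEP preincubated 30 min at 37 °C with compound (10 μM down to pM), then 10 μM Mca-D-Arg-Arg-Leu-Dap-(Dnp)-OH in 50 mM HEPES pH 7.5, 100 mM NaCl, 0.01% Tween-20, 10 μM ZnSO4. Stopped after 20 min with acetic acid; fluorescence Ex320/Em405; Ki by nonlinear fit, reported as pKi.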
For orientation: Ki means the dissociation constant of the complex between target and ligand, obtained from inhibition or displacement. Take `CCCNC(=O)c1cc(C(=O)N[C@H](Cc2ccc(-c3ccccc3)cc2)CC(O)C(=O)O)[nH]n1` (stereo partly drawn) [Example 15-61, (R)-5-Biphenyl-4-yl-2-hydroxy-4-[(5-propylcarbamoyl-2H-pyrazole-3-carbonyl)-amino]pentanoic acid]: the Ki is no more than 1 nM.

One may read the pKi as the Ki on a negative log10 scale, so that one unit is a factor of ten. Regarding `CN(C)C(=O)c1cc(C(=O)N[C@H](Cc2ccc(-c3ccccc3)cc2)C[C@@H](O)C(=O)O)[nH]n1` [Example 15-63, (2R,4R)-5-Biphenyl-4-yl-4-[(5-dimethylcarbamoyl-2H-pyrazole-3-carbonyl)-amino]-2-hydroxy-pentanoic acid], the pKi was no less than 9.0. For `CC(C)CN(C)C(=O)c1cc(C(=O)N[C@H](Cc2ccc(-c3ccccc3)cc2)C[C@H](O)C(=O)O)[nH]n1` [Example 15-65, (2S,4R)-5-Biphenyl-4-yl-2-hydroxy-4-{[5-(isobutylmethyl-carbamoyl)-2H-pyrazole-3-carbonyl]amino}-pentanoic acid], the inhibitory constant (Ki) is 12.6 to 100 nM.

For the compound `CC(C)CN(C)C(=O)c1cc(C(=O)N[C@H](Cc2ccc(-c3ccccc3)cc2)C[C@@H](O)C(=O)O)[nH]n1` [Example 15-67, (2R,4R)-5-Biphenyl-4-yl-2-hydroxy-4-{[5-(isobutylmethyl-carbamoyl)-2H-pyrazole-3-carbonyl]amino}-pentanoic acid], the pKi was no less than 9.0. Take `O=C(NCCc1cnc[nH]1)c1cc(C(=O)N[C@H](Cc2ccc(-c3ccccc3)cc2)C[C@@H](O)C(=O)O)[nH]n1` [Example 15-69, (2R,4R)-5-Biphenyl-4-yl-2-hydroxy-4-({5-[2-(3H-imidazol-4-yl)-ethylcarbamoyl]-2H-pyrazole-3-carbonyl}amino)pentanoic acid]: the Ki was 12.6 to 100 nM. As for `O=C(NCCO)c1cc(C(=O)N[C@H](Cc2ccc(-c3ccccc3)cc2)CC(O)C(=O)O)[nH]n1` (stereo partly drawn) [Example 15-70, (R)-5-Biphenyl-4-yl-2-hydroxy-4-{[5-(2-hydroxy-ethylcarbamoyl)-2H-pyrazole-3-carbonyl]-amino}-pentanoic acid], the Ki was 1.26 to 10 nM. Still for that read-out and setting: with `CN(C)CCNC(=O)c1cc(C(=O)N[C@H](Cc2ccc(-c3ccccc3)cc2)CC(O)C(=O)O)[nH]n1` (stereo partly drawn) [Example 15-71, (R)-5-Biphenyl-4-yl-4-{[5-(2-dimethylamino-ethylcarbamoyl)-2H-pyrazole-3-carbonyl]-amino}-2-hydroxy-pentanoic acid] the figure was 1.26 to 10 nM. Turning to `O=C(N[C@H](Cc1ccc(-c2ccccc2)cc1)CC(O)C(=O)O)c1cc(C2CC2)n[nH]1` (stereo partly drawn) [Example 15-72, (R)-5-Biphenyl-4-yl-4-[(5-cyclopropyl-2H-pyrazole-3-carbonyl)-amino]-2-hydroxy-pentanoic acid], the Ki was 12.6 to 100 nM. With `CC(C)c1cc(C(=O)N[C@H](Cc2ccc(-c3ccccc3)cc2)CC(O)C(=O)O)[nH]n1` (stereo partly drawn) [Example 15-73, (R)-5-Biphenyl-4-yl-2-hydroxy-4-[(5-isopropyl-2H-pyrazole-3-carbonyl)amino]-pentanoic acid], the Ki was 12.6 to 100 nM.

With `CCCc1cc(C(=O)N[C@H](Cc2ccc(-c3ccccc3)cc2)CC(O)C(=O)O)[nH]n1` (stereo partly drawn) [Example 15-74, (R)-5-Biphenyl-4-yl-2-hydroxy-4-[(5-propyl-2H-pyrazole-3-carbonyl)amino]-pentanoic acid], the Ki was 12.6 to 100 nM.

As to `CCCCc1cc(C(=O)N[C@H](Cc2ccc(-c3ccccc3)cc2)CC(O)C(=O)O)[nH]n1` (stereo partly drawn) [Example 15-75, (R)-5-Biphenyl-4-yl-4-[(5-butyl-2H-pyrazole-3-carbonyl)-amino]-2-hydroxy-pentanoic acid], the Ki was 1.26 to 10 nM. In the case of `O=C(N[C@H](Cc1ccc(-c2ccccc2)cc1)CC(O)C(=O)O)c1cc(-c2ccccc2)n[nH]1` (stereo partly drawn) [Example 15-76, (R)-5-Biphenyl-4-yl-2-hydroxy-4-[(5-phenyl-2H-pyrazole-3-carbonyl)-amino]-pentanoic acid], the Ki was 1.26 to 10 nM. Regarding `COc1ccccc1-c1cc(C(=O)N[C@H](Cc2ccc(-c3ccccc3)cc2)C[C@@H](O)C(=O)O)[nH]n1` [Example 15-79, (2R,4R)-5-Biphenyl-4-yl-2-hydroxy-4-{[5-(2-methoxy-phenyl)-2H-pyrazole-3-carbonyl]-amino}-pentanoic acid], the pKi was no less than 9.0. Regarding `COc1ccc(OC)c(-c2cc(C(=O)N[C@H](Cc3ccc(-c4ccccc4)cc3)C[C@@H](O)C(=O)O)[nH]n2)c1` [Example 15-80, (2R,4R)-5-Biphenyl-4-yl-4-{[5-(2,5-dimethoxy-phenyl)-2H-pyrazole-3-carbonyl]-amino}-2-hydroxy-pentanoic acid], the pKi is no less than 9.0. Take `O=C(N[C@H](Cc1ccc(-c2ccccc2)cc1)CC(O)C(=O)O)c1cc(-c2ccccc2C(F)(F)F)n[nH]1` (stereo partly drawn) [Example 15-81, (R)-5-Biphenyl-4-yl-2-hydroxy-4-{[5-(2-trifluoromethyl-phenyl)-2H-pyrazole-3-carbonyl]-amino}-pentanoic acid]: the Ki is 12.6 to 100 nM.

`O=C(N[C@H](Cc1ccc(-c2ccccc2)cc1)CC(O)C(=O)O)c1cc(-c2ccc(F)cc2)n[nH]1` (stereo partly drawn) [Example 15-82, (R)-5-Biphenyl-4-yl-4-{[5-(4-fluorophenyl)-2H-pyrazole-3-carbonyl]amino}-2-hydroxy-pentanoic acid]: the inhibitory constant (Ki) was 1.26 to 10 nM. Consider `O=C(NC(Cc1ccc(-c2ccccc2)cc1)C[C@@H](O)C(=O)O)c1cc(-c2ccc(Cl)cc2)n[nH]1` (stereo partly shown) [Example 15-83], for which the pKi was no less than 9.0.

As for `O=C(N[C@H](Cc1ccc(-c2ccccc2)cc1)C[C@@H](O)C(=O)O)c1cc(-c2ccccc2Cl)n[nH]1` [Example 15-84, (2R,4R)-5-Biphenyl-4-yl-4-{[5-(2-chlorophenyl)-2H-pyrazole-3-carbonyl]amino}-2-hydroxy-pentanoic acid], the pKi is no less than 9.0. On the same count and under the same terms, with `COc1ccc(F)cc1-c1cc(C(=O)N[C@H](Cc2ccc(-c3ccccc3)cc2)C[C@@H](O)C(=O)O)[nH]n1` [Example 15-86, (2R,4R)-5-Biphenyl-4-yl-4-{[5-(5-fluoro-2-methoxy-phenyl)-2H-pyrazole-3-carbonyl]-amino}-2-hydroxy-pentanoic acid] the figure was no less than 9.0; with `Cc1ccc(-c2cc(C(=O)N[C@H](Cc3ccc(-c4ccccc4)cc3)C[C@@H](O)C(=O)O)[nH]n2)s1` [Example 15-89, (2R,4R)-5-Biphenyl-4-yl-2-hydroxy-4-{[5-(5-methylthiophen-2-yl)-2H-pyrazole-3-carbonyl]-amino}-pentanoic acid], no less than 9.0. On the same count and under the same terms, the figure for `O=C(N[C@H](Cc1ccc(-c2ccccc2)cc1)C[C@@H](O)C(=O)O)c1cc(-c2ccc(Cl)s2)n[nH]1` [Example 15-90, (2R,4R)-5-Biphenyl-4-yl-4-{[5-(5-chlorothiophen-2-yl)-2H-pyrazole-3-carbonyl]-amino}-2-hydroxy-pentanoic acid] is no less than 9.0.

Consider `CCC(=O)Nc1cc(C(=O)N[C@H](Cc2ccc(-c3ccccc3)cc2)CC(O)C(=O)O)[nH]n1` (stereo partly drawn) [Example 15-91, (R)-5-Biphenyl-4-yl-2-hydroxy-4-[(5-propionylamino-2H-pyrazole-3-carbonyl)-amino]-pentanoic acid], for which the Ki was 12.6 to 100 nM. As to `CCCCC(=O)Nc1cc(C(=O)N[C@H](Cc2ccc(-c3ccccc3)cc2)CC(O)C(=O)O)[nH]n1` (stereo partly drawn) [Example 15-92, (R)-5-Biphenyl-4-yl-2-hydroxy-4-[(5-pentanoylamino-2H-pyrazole-3-carbonyl)-amino]-pentanoic acid], the Ki is 12.6 to 100 nM.

As for `CCOC(=O)Nc1cc(C(=O)N[C@H](Cc2ccc(-c3ccccc3)cc2)CC(O)C(=O)O)[nH]n1` (stereo partly drawn) [Example 15-93, (R)-5-Biphenyl-4-yl-4-[(5-ethoxycarbonylamino-2H-pyrazole-3-carbonyl)-amino]-2-hydroxy-pentanoic acid], the Ki is 12.6 to 100 nM. As to `COCC(=O)Nc1cc(C(=O)N[C@H](Cc2ccc(-c3ccccc3)cc2)CC(O)C(=O)O)[nH]n1` (stereo partly drawn) [Example 15-94, (R)-5-Biphenyl-4-yl-2-hydroxy-4-{[5-(2-methoxy-acetylamino)-2H-pyrazole-3-carbonyl]-amino}-pentanoic acid], the Ki is 12.6 to 100 nM. On to `COc1ccccc1C(=O)Nc1cc(C(=O)N[C@H](Cc2ccc(-c3ccccc3)cc2)CC(O)C(=O)O)[nH]n1` (stereo partly drawn) [Example 15-95, (R)-5-Biphenyl-4-yl-2-hydroxy-4-{[5-(2-methoxy-benzoylamino)-2H-pyrazole-3-carbonyl]-amino}-pentanoic acid], for which the Ki was 1.26 to 10 nM. Take `O=C(N[C@H](Cc1ccc(-c2ccccc2)cc1)C[C@@H](O)C(=O)O)c1cc(NC(=O)c2ccccc2Cl)n[nH]1` [Example 15-96, (2R,4R)-5-Biphenyl-4-yl-4-{[5-(2-chlorobenzoylamino)-2H-pyrazole-3-carbonyl]-amino}-2-hydroxy-pentanoic acid]: the pKi was no less than 9.0. Regarding `O=C(Nc1cc(C(=O)N[C@H](Cc2ccc(-c3ccccc3)cc2)CC(O)C(=O)O)[nH]n1)c1ccccn1` (stereo partly drawn) [Example 15-100, (R)-5-Biphenyl-4-yl-2-hydroxy-4-({5-[(pyridine-2-carbonyl)-amino]-2H-pyrazole-3-carbonyl}-amino)-pentanoic acid], the Ki is 1.26 to 10 nM. As to `Nc1cc(C(=O)N[C@H](Cc2ccc(-c3ccccc3)cc2)CC(O)C(=O)O)n[nH]1` (stereo partly drawn) [Example 15-101, (R)-4-[(5-Amino-2H-pyrazole-3-carbonyl)-amino]-5-biphenyl-4-yl-2-hydroxy-pentanoic acid], the Ki is 12.6 to 100 nM.

Take `O=C(N[C@H](Cc1ccc(-c2ccccc2)cc1)C[C@@H](O)C(=O)O)c1cc(-c2ccccn2)n[nH]1` [Example 15-102, (2R,4R)-5-Biphenyl-4-yl-2-hydroxy-4-[(5-pyridin-2-yl-2H-pyrazole-3-carbonyl)-amino]-pentanoic acid]: the Ki was no more than 1 nM.

Turning to `O=C(N[C@H](Cc1ccc(-c2ccccc2)cc1)C[C@@H](O)C(=O)O)c1cc(-c2cnccn2)n[nH]1` [Example 15-106, (2R,4R)-5-Biphenyl-4-yl-2-hydroxy-4-[(5-pyrazin-2-yl-2H-pyrazole-3-carbonyl)-amino]pentanoic acid], the Ki is 1.26 to 10 nM.
